Values quoted from earlier work as cited in PubChem BioAssay AID1259409 (Chemical Carcinogenesis Research Information System (CCRIS), 2018).

Test system: rodent chemically induced tumor inhibition, incidence and multiplicity
Test: CCRIS tumor inhibitor studies
Settings: Carcinogen: AZOXYMETHANE, 25843-45-2, Dose [Inhibitor]: 0, Route [Inhibitor]: ORAL, Species: RAT, Strain/Sex: F344/MALE, Promoter: NONE USED

## CN1C(C(=O)Nc2ccccn2)=C(O)c2ccccc2S1(=O)=O
150 PPM IN DIET BEGINNING 1 WK POST CARCINOGEN DOSE FOR DURATION OF STUDY (STUDY DURATION: 56 WK), Target Tissue: Type of Lesion: COLON: ADENOMA, Dose [Carcinogen]: 29.6 MG/KG IN NORMAL SALINE ONCE
  tumour outcome (control, treated, inhibition, significance): 11/30 (37%), 9/30 (30%), 19%, not calculated
150 PPM IN DIET BEGINNING 1 WK POST CARCINOGEN DOSE FOR DURATION OF STUDY (STUDY DURATION: 56 WK), Target Tissue: Type of Lesion: SMALL INTESTINE: ADENOCARCINOMA, Dose [Carcinogen]: 29.6 MG/KG IN NORMAL SALINE ONCE
  tumour outcome (control, treated, inhibition, significance): 10/30 (33%), 8/30 (27%), 20%, not calculated
150 PPM IN DIET BEGINNING 1 WK POST CARCINOGEN DOSE FOR DURATION OF STUDY (STUDY DURATION: 56 WK), Target Tissue: Type of Lesion: SMALL INTESTINE: ADENOMA, Dose [Carcinogen]: 29.6 MG/KG IN NORMAL SALINE ONCE
  tumour outcome (control, treated, inhibition, significance): 1/30 (3%), 1/30 (3%), 0%, not calculated
150 PPM IN DIET FOR 29 WK BEGINNING 1 WK POST CARCINOGEN TREATMENT (STUDY DURATION: 32 WK), Target Tissue: Type of Lesion: COLON: ADENOMA, Dose [Carcinogen]: 15 MG/KG BW 1/WK FOR 2 WK
  tumour outcome (control, treated, inhibition, significance): 77%, 33%, 57%, p<0.05
150 PPM IN DIET FOR 29 WK BEGINNING 1 WK POST CARCINOGEN TREATMENT (STUDY DURATION: 32 WK), Target Tissue: Type of Lesion: COLON: CARCINOMA, Dose [Carcinogen]: 15 MG/KG BW 1/WK FOR 2 WK
  tumour outcome (control, treated, inhibition, significance): 53%, 23%, 57%, p<0.05
200 PPM IN DIET BEGINNING 1 WK PRIOR TO CARCINOGEN TREATMENT FOR DURATION OF STUDY (STUDY DURATION: 54 WK), Target Tissue: Type of Lesion: COLON: ADENOCARCINOMA, Dose [Carcinogen]: 15 MG/KG/BW 1/WK FOR 2 WK
  tumour outcome (control, treated, inhibition, significance): 58%, 33%, 43%, p<0.05
200 PPM IN DIET BEGINNING 1 WK PRIOR TO CARCINOGEN TREATMENT FOR DURATION OF STUDY (STUDY DURATION: 54 WK), Target Tissue: Type of Lesion: COLON: ADENOMA., Dose [Carcinogen]: 15 MG/KG/BW 1/WK FOR 2 WK
  tumour outcome (control, treated, inhibition, significance): 6%, 8%, -33%, not calculated
200 PPM IN DIET BEGINNING PRIOR TO CARCINOGEN DOSE AND CONTINUING FOR DURATION OF STUDY (STUDY DURATION: 54 WK), Target Tissue: Type of Lesion: COLON: ADENOCARCINOMA, Dose [Carcinogen]: 15 MG/KG 1/WK FOR 2 WK
  tumour outcome (control, treated, inhibition, significance): 72%, 33%, 54%, p<0.001
200 PPM IN DIET BEGINNING PRIOR TO CARCINOGEN DOSE AND CONTINUING FOR DURATION OF STUDY (STUDY DURATION: 54 WK), Target Tissue: Type of Lesion: COLON: ADENOMA, Dose [Carcinogen]: 15 MG/KG 1/WK FOR 2 WK
  tumour outcome (control, treated, inhibition, significance): 14%, 3%, 79%, not calculated
200 PPM IN DIET BEGINNING PRIOR TO CARCINOGEN DOSE AND CONTINUING FOR DURATION OF STUDY (STUDY DURATION: 54 WK), Target Tissue: Type of Lesion: SMALL INTESTINE: ADENOCARCINOMA, Dose [Carcinogen]: 15 MG/KG 1/WK FOR 2 WK
  tumour outcome (control, treated, inhibition, significance): 50%, 17%, 66%, p<0.01
200 PPM IN DIET BEGINNING PRIOR TO CARCINOGEN DOSE AND CONTINUING FOR DURATION OF STUDY (STUDY DURATION: 54 WK), Target Tissue: Type of Lesion: SMALL INTESTINE: ADENOMA, Dose [Carcinogen]: 15 MG/KG 1/WK FOR 2 WK
  tumour outcome (control, treated, inhibition, significance): 3%, 0%, 100%, not calculated
200 PPM IN DIET FOR 56 WK BEGINNING 2 WK PRIOR TO CARCINOGEN TREATMENT (STUDY DURATION: 56 WK), Target Tissue: Type of Lesion: COLON(DISTAL): TUMOR, Dose [Carcinogen]: 15 MG/KG 1/WK FOR 2 WK
  tumour outcome (control, treated, inhibition, significance): 52%, 35%, 33%, p<0.05
200 PPM IN DIET FOR 56 WK BEGINNING 2 WK PRIOR TO CARCINOGEN TREATMENT (STUDY DURATION: 56 WK), Target Tissue: Type of Lesion: COLON(PROXIMAL): TUMOR, Dose [Carcinogen]: 15 MG/KG 1/WK FOR 2 WK
  tumour outcome (control, treated, inhibition, significance): 38%, 15%, 61%, p<0.01
200 PPM IN DIET FOR 56 WK BEGINNING 2 WK PRIOR TO CARCINOGEN TREATMENT (STUDY DURATION: 56 WK), Target Tissue: Type of Lesion: SMALL INTESTINE(DISTAL): TUMOR, Dose [Carcinogen]: 15 MG/KG 1/WK FOR 2 WK
  tumour outcome (control, treated, inhibition, significance): 12%, 6%, 50%, not significant
200 PPM IN DIET FOR 56 WK BEGINNING 2 WK PRIOR TO CARCINOGEN TREATMENT (STUDY DURATION: 56 WK), Target Tissue: Type of Lesion: SMALL INTESTINE(PROXIMAL): TUMOR, Dose [Carcinogen]: 15 MG/KG 1/WK FOR 2 WK
  tumour outcome (control, treated, inhibition, significance): 33%, 11%, 67%, p<0.05
